Data on one compound can be found in patent US20090029366A1 (priority 2007, published 2009).

The structures appear in SMILES notation. pIC50: −log10 of the molar value. Read-outs that look alike come from different tables or passages of the source.

Test [1] concerns the target T1, human HCN1 (Homo sapiens, UniProt O60741).
T1 construct: expressed in transfected cells; host or cells: HEK-293H
T1 sequence (O60741 1-890): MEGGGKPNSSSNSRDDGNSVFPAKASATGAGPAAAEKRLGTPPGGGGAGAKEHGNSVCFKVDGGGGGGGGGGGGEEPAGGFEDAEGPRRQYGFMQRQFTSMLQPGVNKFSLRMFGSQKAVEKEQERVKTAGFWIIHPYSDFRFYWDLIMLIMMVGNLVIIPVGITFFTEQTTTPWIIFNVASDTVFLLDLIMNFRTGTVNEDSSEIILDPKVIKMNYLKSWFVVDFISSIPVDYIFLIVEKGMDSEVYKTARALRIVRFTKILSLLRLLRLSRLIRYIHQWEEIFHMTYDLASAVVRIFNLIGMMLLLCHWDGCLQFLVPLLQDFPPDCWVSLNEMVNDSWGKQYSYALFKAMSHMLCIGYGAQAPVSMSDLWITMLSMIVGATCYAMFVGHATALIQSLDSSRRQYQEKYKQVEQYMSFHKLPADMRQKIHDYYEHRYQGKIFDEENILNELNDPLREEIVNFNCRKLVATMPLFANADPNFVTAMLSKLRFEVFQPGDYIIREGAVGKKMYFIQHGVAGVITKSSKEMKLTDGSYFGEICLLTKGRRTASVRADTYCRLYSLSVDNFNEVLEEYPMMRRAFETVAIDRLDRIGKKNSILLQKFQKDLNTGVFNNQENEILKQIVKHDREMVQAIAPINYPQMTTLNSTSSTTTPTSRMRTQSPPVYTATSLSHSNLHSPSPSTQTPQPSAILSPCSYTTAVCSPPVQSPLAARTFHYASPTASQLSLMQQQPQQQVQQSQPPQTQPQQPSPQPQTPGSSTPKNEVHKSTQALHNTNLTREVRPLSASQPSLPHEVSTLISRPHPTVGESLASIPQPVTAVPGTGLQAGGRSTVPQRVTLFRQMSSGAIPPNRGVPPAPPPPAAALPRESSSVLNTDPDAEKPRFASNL
In words: Dose response of blockade of hyperpolarization (MPSD FLIPR), HCN1. It is filed as cell-based. Particulars: HEK-293 clone. As to the method: HEK-293H cells stably expressing a human HCN1 channel were plated and incubated in HBSS essentially as described in Examples 3 and 5. CHO-K1 cells stably expressing a human HCN4 channel were plated and incubated in HBSS essentially as described in Example 6. Varying concentrations of ZD7288 were added to HBSS for each of the test wells to determine the dose response of cells expressing HCN1 or HCN4 channels. The percent inhibition of hyperpolarization was calculated for a single dose using the following equation:
The data were fit with a Hill equation as described by the ratio 1/(1+([test agent]/IC50)^k, where IC50 is the concentration of a test agent required to inhibit one-half of the maximum current and k is the Hill coefficient.
FIG. 10A depicts a typical dose response curve for a single HEK-293H HCN1 channel expressing clone in the presence of ZD7288. […] No statistical difference was found between the two means.

Test [2] addresses T1, human HCN1. Put plainly: MPSD FLIPR 96 well hyperpolarization assay, HCN1. It is filed as cell-based. Also on record: blockade of hyperpolarization (change in fluorescence), FIG. 4 legend: dose or concentration left out as unconfirmed. As to the method: The above-described assay was modified for use with the FLIPR®^96 or FLEX^96 96 well plate format. In brief, cells stably expressing HCN channels were plated at 40-80×10^3 cells/plate in 100-150 μl/well of DMEM supplemented with 10% fetal bovine serum, 1× NEAA, and 1× penicillin/streptomycin. Cells were cultured for 24-48 hours in a 5% CO2/air humidifiedincubator at 37° C. Cells were incubated in 30 μl/well of HBSS containing MPSD, as described above, for 15-45 minutes at room temperature.
Membrane potentials were measured at room temperature (21°-23°) using a FLIPR® system or a FLEXSTATION® (Molecular Devices of Sunnydale, Calif.). Control cells were incubated in HBSS/MPSD without a test agent. For identification of HCN channel modulators, cells were incubated in HBSS/MPSD and the presence of a test agent as described in Examples 5 and 6 herein below.
HEK-293H cells stably expressing HCN1 or HCN3 channels were each plated at 40-80×10^3 cells/plate in a FLIPR®^96 well format in 100-150 μl/ well of DMEM supplemented with 10% fetal bovine serum and penicillin/streptomycin. The cells were cultured for 24-48 hours in a 5% CO2/air humidified incubatorat 37° C.
[…] Cells were incubated for 15 to 45 minutes. […] The change in fluorescence (ΔF) was measured for a total assay time of about 100 seconds. […]

Turning to `CCN(c1ccccc1)c1cc(=NC)n(C)c(C)n1.Cl` [ZD7288], the negative logarithm of the IC50 (pIC50) (as a rule, −log10 of the IC50, conventionally taken in molar units) at human HCN1 [1] (group 1, n=8, mean ± 0.2 μM, read-out: IC50 mean, group 1) was 5.68; at human HCN1 [1] (group 2, n=12, mean ± 0.8 μM, read-out: IC50 mean, group 2) it was 5.54. Also, the “blockade of hyperpolarization (change in fluorescence)” value on human HCN1 [2] (50 μM ZD7288, HEK-293H HCN1, about 100 seconds) is reported as “effectively blocked hyperpolarization”. Also, the “blockade of hyperpolarization (change in fluorescence), FIG. 4 legend” value at human HCN1 [2] (cells expressing HCN1) was “effectively blocked hyperpolarization”.
